# From ChEMBL document CHEMBL4622906, “Design, synthesis and evaluation of novel levoglucosenone derivatives as promising anticancer agents” (Bioorg Med Chem Lett, 2020)
# pIC50: −log10 of the molar value. Active and inactive are the calls of the source. The rule behind the calls is not given here.
# Columns and labels:
# MDA-MB-231 [1] = experiment: Cytotoxicity against human MDA-MB-231 cells assessed as reduction in cell viability incubated for 48 hrs by MTT assay; type: functional, cell-based; conditions: MDA-MB-231, 48 h
# NCI-H1299 [2] = experiment: Cytotoxicity against human H1299 cells assessed as reduction in cell viability incubated for 48 hrs by MTT assay; type: functional, cell-based; conditions: NCI-H1299, 48 h
# HT-29 = experiment: Cytotoxicity against human HT-29 cells assessed as reduction in cell viability incubated for 48 hrs by MTT assay; type: functional, cell-based; conditions: HT-29, 48 h
# MDA-MB-231 [3] = experiment: Cytotoxicity against human MDA-MB-231 cells with p53 knock down assessed as reduction in cell viability incubated for 48 hrs by MTT assay; type: functional, cell-based
# NCI-H1299 [4] = experiment: Cytotoxicity against human H1299 cells with p53 R280K mutant assessed as reduction in cell viability incubated for 48 hrs by MTT assay; type: functional, cell-based
# [5] = Selectivity index, ratio of IC50 for African green monkey Vero cells to IC50 for human MDA-MB-231 cells; type: toxicity; conditions: Vero cells versus MDA-MB-231 cells, read-out: Ratio IC50
# [6] = Selectivity index, ratio of IC50 for African green monkey Vero cells to IC50 for human H1299 cells; type: toxicity; conditions: Vero cells versus H1299 cells, read-out: Ratio IC50
# [7] = Selectivity index, ratio of IC50 for African green monkey Vero cells to IC50 for human HT-29 cells; type: toxicity; conditions: Vero cells versus HT-29 cells, read-out: Ratio IC50
compound,measurement,setting,value
O=C1C[C@H](OCc2cc(-c3ccc(Cl)cc3)no2)[C@H]2CO[C@@H]1O2,pIC50,MDA-MB-231 [1],4.75
same,pIC50,NCI-H1299 [2],5.05
same,pIC50,HT-29,4.84
same,inhibition,MDA-MB-231 [3],inactive
same,cytotoxicity activity call (active/inactive),NCI-H1299 [4],Active
O=C1C[C@H](OCc2cn(-c3ccccc3)nn2)[C@H]2CO[C@@H]1O2,pIC50,MDA-MB-231 [1],4.60
same,pIC50,NCI-H1299 [2],4.96
same,pIC50,HT-29,4.87
same,inhibition,MDA-MB-231 [3],inactive
same,cytotoxicity activity call (active/inactive),NCI-H1299 [4],Active
O=C1C[C@H](OCc2cn(Cc3ccc4ccccc4c3)nn2)[C@H]2CO[C@@H]1O2,pIC50,MDA-MB-231 [1],4.63
C=C(C)Cn1cc(CO[C@H]2CC(=O)[C@@H]3OC[C@H]2O3)nn1,pIC50,MDA-MB-231 [1],4.57
same,pIC50,NCI-H1299 [2],4.84
same,pIC50,HT-29,4.76
same,inhibition,MDA-MB-231 [3],inactive
same,cytotoxicity activity call (active/inactive),NCI-H1299 [4],Active
O=C1C[C@H](OCc2cn(-c3ccccc3Br)nn2)[C@H]2CO[C@@H]1O2,pIC50,MDA-MB-231 [1],4.65
O=C1C[C@H](OCc2cc(-c3ccccc3)no2)[C@H]2CO[C@@H]1O2,pIC50,MDA-MB-231 [1],4.66
same,pIC50,NCI-H1299 [2],5.01
same,pIC50,HT-29,4.77
same,inhibition,MDA-MB-231 [3],inactive
same,cytotoxicity activity call (active/inactive),NCI-H1299 [4],Active
O=C1C[C@H](OCc2cc(-c3ccc4ccccc4c3)no2)[C@H]2CO[C@@H]1O2,pIC50,MDA-MB-231 [1],4.67
O=C1C[C@H](OCc2cn(C3CCCCC3)nn2)[C@H]2CO[C@@H]1O2,pIC50,MDA-MB-231 [1],4.61
same,pIC50,NCI-H1299 [2],4.92
same,pIC50,HT-29,4.92
same,selectivity ratio,[5],> 2
same,inhibition,MDA-MB-231 [3],inactive
same,selectivity ratio,[6],5
same,selectivity ratio,[7],6
same,cytotoxicity activity call (active/inactive),NCI-H1299 [4],Active
CCCCCCCCn1cc(CN(C(C)=O)[C@H]2CC(=O)[C@@H]3OC[C@H]2O3)nn1,pIC50,MDA-MB-231 [1],< 4.30
O=C1C[C@H](OCc2cn(C(=O)OCC3c4ccccc4-c4ccccc43)nn2)[C@H]2CO[C@@H]1O2,pIC50,MDA-MB-231 [1],4.73
same,pIC50,NCI-H1299 [2],5.05
same,pIC50,HT-29,4.81
same,selectivity ratio,[5],> 2
same,inhibition,MDA-MB-231 [3],inactive
same,selectivity ratio,[6],5
same,selectivity ratio,[7],6
same,cytotoxicity activity call (active/inactive),NCI-H1299 [4],Active
O=C1C[C@H](OCc2cn(Cc3ccc([N+](=O)[O-])cc3)nn2)[C@H]2CO[C@@H]1O2,pIC50,MDA-MB-231 [1],4.60
COc1ccc(-c2cc(CO[C@H]3CC(=O)[C@@H]4OC[C@H]3O4)on2)cc1,pIC50,MDA-MB-231 [1],4.66
O=C1C[C@H](OCc2cn(-c3cccc(Cl)c3Cl)nn2)[C@H]2CO[C@@H]1O2,pIC50,MDA-MB-231 [1],4.59
O=C1C[C@H](OCc2cn(-c3ccccc3Cl)nn2)[C@H]2CO[C@@H]1O2,pIC50,MDA-MB-231 [1],4.58
O=C1C[C@H](OCc2cn(-c3ccc(F)cc3)nn2)[C@H]2CO[C@@H]1O2,pIC50,MDA-MB-231 [1],4.63
O=C1CCCCC1n1cc(CO[C@H]2CC(=O)[C@@H]3OC[C@H]2O3)nn1 (some centres undefined),pIC50,MDA-MB-231 [1],4.44
COC(=O)Cn1cc(CO[C@H]2CC(=O)[C@@H]3OC[C@H]2O3)nn1,pIC50,MDA-MB-231 [1],4.67
O=C1C[C@H](OCc2cc(-c3ccc([N+](=O)[O-])cc3)no2)[C@H]2CO[C@@H]1O2,pIC50,MDA-MB-231 [1],4.78
same,pIC50,NCI-H1299 [2],4.95
same,pIC50,HT-29,4.70
same,inhibition,MDA-MB-231 [3],inactive
same,cytotoxicity activity call (active/inactive),NCI-H1299 [4],Active
O=C(O)c1ccc(-n2cc(CO[C@H]3CC(=O)[C@@H]4OC[C@H]3O4)nn2)cc1,pIC50,MDA-MB-231 [1],4.63
CCCCCCCCn1cc(CO[C@H]2CC(=O)[C@@H]3OC[C@H]2O3)nn1,pIC50,MDA-MB-231 [1],< 4.30
COc1ccc(/C=C/c2cc(CO[C@H]3CC(=O)[C@@H]4OC[C@H]3O4)on2)cc1,pIC50,MDA-MB-231 [1],4.58
CC(=O)N(Cc1cn(Cc2ccccc2)nn1)[C@H]1CC(=O)[C@@H]2OC[C@H]1O2,pIC50,MDA-MB-231 [1],< 4.30
O=C1C[C@H](OCc2cc(-c3ccc(Cl)o3)no2)[C@H]2CO[C@@H]1O2,pIC50,MDA-MB-231 [1],4.86
same,pIC50,NCI-H1299 [2],5.12
same,pIC50,HT-29,5.00
same,inhibition,MDA-MB-231 [3],inactive
same,cytotoxicity activity call (active/inactive),NCI-H1299 [4],Active
CC(=O)N(Cc1cn(CC(=O)c2ccccc2)nn1)[C@H]1CC(=O)[C@@H]2OC[C@H]1O2,pIC50,MDA-MB-231 [1],< 4.30
O=C1C[C@H](OCc2cn(-c3cccc4ccccc34)nn2)[C@H]2CO[C@@H]1O2,pIC50,MDA-MB-231 [1],4.66
O=C1C[C@H](OCc2cn(-c3ccc(Cl)cc3)nn2)[C@H]2CO[C@@H]1O2,pIC50,MDA-MB-231 [1],4.58
same,pIC50,NCI-H1299 [2],4.97
same,pIC50,HT-29,4.83
same,inhibition,MDA-MB-231 [3],inactive
same,cytotoxicity activity call (active/inactive),NCI-H1299 [4],Active
O=C1C[C@H](OCc2cc(/C=C/c3ccccc3)no2)[C@H]2CO[C@@H]1O2,pIC50,MDA-MB-231 [1],4.64
same,pIC50,NCI-H1299 [2],5.15
same,pIC50,HT-29,4.86
same,inhibition,MDA-MB-231 [3],inactive
same,cytotoxicity activity call (active/inactive),NCI-H1299 [4],Active
O=C1C[C@H](OCc2cc(-c3cc(C(F)(F)F)cc(C(F)(F)F)c3)no2)[C@H]2CO[C@@H]1O2,pIC50,MDA-MB-231 [1],4.62
CCCCn1cc(CO[C@H]2CC(=O)[C@@H]3OC[C@H]2O3)nn1,pIC50,MDA-MB-231 [1],4.55
O=C1C[C@H](OCc2cn(-c3ccc([N+](=O)[O-])cc3)nn2)[C@H]2CO[C@@H]1O2,pIC50,MDA-MB-231 [1],4.61
same,pIC50,NCI-H1299 [2],4.99
same,pIC50,HT-29,4.74
same,inhibition,MDA-MB-231 [3],inactive
same,cytotoxicity activity call (active/inactive),NCI-H1299 [4],Active
COC(=O)Cn1cc(CN(C(C)=O)[C@H]2CC(=O)[C@@H]3OC[C@H]2O3)nn1,pIC50,MDA-MB-231 [1],< 4.30
COc1ccc(Cn2cc(CO[C@H]3CC(=O)[C@@H]4OC[C@H]3O4)nn2)cc1,pIC50,MDA-MB-231 [1],4.46
O=C1C[C@H](OCc2cn(Cc3ccccc3)nn2)[C@H]2CO[C@@H]1O2,pIC50,MDA-MB-231 [1],< 4.30
O=C(Cn1cc(CO[C@H]2CC(=O)[C@@H]3OC[C@H]2O3)nn1)c1ccccc1,pIC50,MDA-MB-231 [1],4.59
O=C1C[C@H](OCc2cc(C3CCCCC3)no2)[C@H]2CO[C@@H]1O2,pIC50,MDA-MB-231 [1],4.80
same,pIC50,NCI-H1299 [2],5.21
same,pIC50,HT-29,5.05
same,inhibition,MDA-MB-231 [3],inactive
same,cytotoxicity activity call (active/inactive),NCI-H1299 [4],Active
